The target of test [1] is T1, Eukaryotic elongation factor 2 kinase (Homo sapiens) (UniProt O00418).
T1 sequence (whole entry): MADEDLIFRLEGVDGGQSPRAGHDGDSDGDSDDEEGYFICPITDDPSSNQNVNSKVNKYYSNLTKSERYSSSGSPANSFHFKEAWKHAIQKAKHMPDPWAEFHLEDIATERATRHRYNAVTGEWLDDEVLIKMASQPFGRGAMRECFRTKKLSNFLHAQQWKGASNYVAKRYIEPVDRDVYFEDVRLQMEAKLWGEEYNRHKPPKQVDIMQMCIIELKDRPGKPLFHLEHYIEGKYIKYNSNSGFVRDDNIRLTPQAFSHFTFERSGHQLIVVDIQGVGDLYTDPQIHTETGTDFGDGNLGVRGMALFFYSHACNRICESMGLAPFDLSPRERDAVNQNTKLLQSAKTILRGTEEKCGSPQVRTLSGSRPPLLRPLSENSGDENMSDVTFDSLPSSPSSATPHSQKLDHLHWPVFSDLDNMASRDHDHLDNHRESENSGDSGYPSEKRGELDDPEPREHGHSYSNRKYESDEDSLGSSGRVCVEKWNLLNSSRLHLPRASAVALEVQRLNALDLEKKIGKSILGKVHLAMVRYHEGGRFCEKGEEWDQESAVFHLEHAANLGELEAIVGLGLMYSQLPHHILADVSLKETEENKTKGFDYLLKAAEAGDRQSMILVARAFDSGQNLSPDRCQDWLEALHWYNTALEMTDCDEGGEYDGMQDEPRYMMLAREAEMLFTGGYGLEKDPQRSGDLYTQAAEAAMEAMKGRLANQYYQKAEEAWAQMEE
Kind of test: Inhibition of human recombinant eEF2K at 15 nM in presence of ATP by radiometric assay relative to control.

In test [2] the target is T2, Serine/threonine-protein kinase Sgk1 (Homo sapiens) (UniProt O00141).
T2 sequence (whole entry): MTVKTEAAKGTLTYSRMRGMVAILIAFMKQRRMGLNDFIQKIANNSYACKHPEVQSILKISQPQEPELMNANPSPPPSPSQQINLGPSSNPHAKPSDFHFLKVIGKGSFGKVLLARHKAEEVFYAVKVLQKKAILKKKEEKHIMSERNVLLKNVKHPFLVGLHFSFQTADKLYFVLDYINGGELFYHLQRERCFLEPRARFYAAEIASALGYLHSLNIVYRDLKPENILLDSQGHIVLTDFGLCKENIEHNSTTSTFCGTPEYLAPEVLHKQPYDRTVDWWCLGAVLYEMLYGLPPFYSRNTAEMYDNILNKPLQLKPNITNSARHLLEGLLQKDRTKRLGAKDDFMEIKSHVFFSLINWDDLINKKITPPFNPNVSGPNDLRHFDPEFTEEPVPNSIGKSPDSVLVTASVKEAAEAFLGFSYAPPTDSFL
Description: Inhibition of human recombinant SGK1 at 15 nM in presence of ATP by radiometric assay relative to control.

The target in test [3] is T3, Mitogen-activated protein kinase kinase kinase 2 (Homo sapiens) (UniProt Q9Y2U5).
T3 sequence (whole entry): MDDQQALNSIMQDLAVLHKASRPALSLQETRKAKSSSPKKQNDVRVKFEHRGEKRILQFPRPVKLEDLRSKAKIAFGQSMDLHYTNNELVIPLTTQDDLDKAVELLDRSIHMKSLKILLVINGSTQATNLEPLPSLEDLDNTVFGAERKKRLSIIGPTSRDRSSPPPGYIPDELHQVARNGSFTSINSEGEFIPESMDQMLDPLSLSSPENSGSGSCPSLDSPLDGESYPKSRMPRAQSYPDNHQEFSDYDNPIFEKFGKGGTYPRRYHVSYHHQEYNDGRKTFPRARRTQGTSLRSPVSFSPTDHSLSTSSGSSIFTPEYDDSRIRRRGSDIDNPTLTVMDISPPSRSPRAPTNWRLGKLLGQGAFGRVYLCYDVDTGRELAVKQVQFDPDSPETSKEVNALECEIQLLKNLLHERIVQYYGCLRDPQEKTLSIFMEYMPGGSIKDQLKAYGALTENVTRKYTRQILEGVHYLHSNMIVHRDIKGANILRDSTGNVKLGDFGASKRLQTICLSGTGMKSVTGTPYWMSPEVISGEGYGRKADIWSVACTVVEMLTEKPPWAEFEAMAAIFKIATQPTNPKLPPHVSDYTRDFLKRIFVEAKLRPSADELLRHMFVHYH
Kind of test: Inhibition of human recombinant MAP3K2 at 15 nM in presence of ATP by radiometric assay relative to control.

Test [4] addresses T4, Tyrosine-protein kinase ZAP-70 (Homo sapiens) (UniProt P43403).
T4 sequence (whole entry): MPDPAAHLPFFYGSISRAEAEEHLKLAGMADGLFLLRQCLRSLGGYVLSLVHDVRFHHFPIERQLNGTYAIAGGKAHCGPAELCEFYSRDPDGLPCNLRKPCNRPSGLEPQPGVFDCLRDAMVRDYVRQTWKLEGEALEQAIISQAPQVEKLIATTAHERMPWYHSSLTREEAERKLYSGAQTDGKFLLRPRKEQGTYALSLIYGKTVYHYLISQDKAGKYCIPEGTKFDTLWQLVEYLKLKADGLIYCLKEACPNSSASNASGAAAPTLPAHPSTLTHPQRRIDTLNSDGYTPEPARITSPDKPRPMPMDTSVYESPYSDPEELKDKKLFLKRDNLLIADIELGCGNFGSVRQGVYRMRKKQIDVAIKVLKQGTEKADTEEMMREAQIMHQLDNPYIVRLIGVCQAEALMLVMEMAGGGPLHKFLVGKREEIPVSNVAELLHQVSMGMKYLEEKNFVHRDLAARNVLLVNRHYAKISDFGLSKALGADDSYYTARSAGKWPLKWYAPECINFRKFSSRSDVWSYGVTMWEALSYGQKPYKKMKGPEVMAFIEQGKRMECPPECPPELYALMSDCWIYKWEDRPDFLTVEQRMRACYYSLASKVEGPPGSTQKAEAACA
Description: Inhibition of human recombinant ZAP70 at 15 nM related to control ULK1.

Test [5] addresses Calcium/calmodulin-dependent protein kinase type II subunit alpha (Homo sapiens) (UniProt Q9UQM7). Kind of test: Inhibition of human recombinant CaMK2a at 40 nM related to control ULK1.

The record followed here is ChEMBL document CHEMBL5653631, “A Potent and Selective ULK1 Inhibitor Suppresses Autophagy and Sensitizes Cancer Cells to Nutrient Stress” (iScience, 2018).

What is called inhibition is the drop in the measured response relative to a control, in per cent.

SMILES strings stand for the structures.

Chain of Calcium/calmodulin-dependent protein kinase type II subunit alpha (Homo sapiens) (Q9UQM7 whole entry): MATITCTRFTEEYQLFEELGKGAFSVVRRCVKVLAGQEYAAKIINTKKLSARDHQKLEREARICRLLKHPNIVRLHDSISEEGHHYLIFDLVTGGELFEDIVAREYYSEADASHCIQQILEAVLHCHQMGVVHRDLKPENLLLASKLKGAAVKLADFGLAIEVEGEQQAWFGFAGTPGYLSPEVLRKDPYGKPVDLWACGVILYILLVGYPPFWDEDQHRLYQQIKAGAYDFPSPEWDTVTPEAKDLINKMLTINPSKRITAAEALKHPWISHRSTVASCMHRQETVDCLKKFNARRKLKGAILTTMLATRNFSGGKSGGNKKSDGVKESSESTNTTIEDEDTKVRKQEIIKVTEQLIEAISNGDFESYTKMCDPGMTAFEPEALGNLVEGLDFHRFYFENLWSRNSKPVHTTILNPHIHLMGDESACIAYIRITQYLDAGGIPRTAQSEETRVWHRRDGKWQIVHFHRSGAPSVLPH

As to `CC(C)[C@H](NC(=O)c1cc(-c2cnn3cc(-c4ccc(OCCN5CCCCC5)cc4)cnc23)cs1)C(F)(F)F`, the values for the inhibition in test [1], in test [2] and in test [3] were 10%, 4% and 3%, respectively. Besides, the fold change (FC) in test [4] came out at 0.

Turning to `O=C(N[C@@H](C1CC1)C(F)(F)F)c1cc(-c2cnn3cc(-c4ccc(F)cc4)cnc23)cs1`, the fold change (FC) in test [5] worked out at 0.
